Assay [1] has as its system laser-induced CNV. Nature of the assay: Laser-induced CNV models of rat: CNV area, flat mounts prepared 4 days after preparation of models. More on the design: key to Test results, CNV area vs. CS, t-test: N.S.: Not Significant (vs. CS), t-test. Format: in vivo. The conditions noted are these: Test Example 19; for CNV area, mean: 5 μL/eye intravitreal once, flat mounts after 4 days, Compound 3 10 mg/ml in PBS, CS (about 40,000) 10 mg/mL in PBS. The procedure: BN/CrlCrlj rats (male, CHARLES RIVER LABORATORIES JAPAN, INC.) were used for the preparation of animal models. Under general anesthesia by intraperitoneal administration of an anesthetic mixture (saline:Somnopentyl=9:1) (about 2 mL/body), Mydrin-P ophthalmic solution was topically instilled to cause mydriasis in both eyes. The retina around the optic disk was irradiated with a laser beam to induce CNV. Used for the laser beam irradiation were SCOPISOL solution for eye, Fundus 5.4 mm Laser Lens, a laser photocoagulation device and a slit lamp illumination system. Immediately after the laser beam irradiation, 5 μL/eye of the test substance was administered once into the vitreous bodies of both eyes. Immediately after the administration, one drop of an antimicrobial drug (VEGAMOX Ophthalmic Solution 0.5%) was instilled.
After 10 days from the preparation, the models were euthanized with CO2. The eyeballs were extracted and immersed in 10% neutral buffered solution of formalin (room temperature, about 60 minutes). Eye cups were prepared, washed with PBS, dehydrated with methanol and immersed in PBS containing 1% bovine serum albumin and 0.5% Triton X-100 (room temperature, about 60 minutes). The retina was removed, and 60 μL of 0.5% fluorescein Griffonia simplicifolia lectin I, FITC-conjugate was added to the eye cups, and the eye cups were allowed to stand (under refrigeration, overnight). By this treatment, vascular endothelial cells of CNV were fluorescently stained with FITC-lectin. Eight slits were made radially in each of the eye cups to thereby obtain flat mounts. These flat mounts were washed twice with PBS containing 0.1% Triton X-100 and embedded on a glass slide with about 120 μL of Prolong Gold Antifade Reagent.
A fluorescence image of CNV in the flat mount embedded on a glass slide was taken with a fluorescent microscope. The area of CNV was measured using an image processing software (Image pro exp).
Laser-induced CNV models of rat were prepared, and neovascularization inhibitory effect was examined with respect to intravitreal administration of Compound 3.
Substantially the same procedure as in ? Method ? for Test Example 1 was repeated, except that flat mounts were prepared 4 days after the preparation of models, instead of 10 days after the preparation of models in Test Example 1.
The areas of CNV in each group were analyzed by a test (t-test) for unpaired two groups. The significance level was 5% on both sides.

Assay [2] deals with laser-induced CNV. Description: Laser-induced CNV models of rat: CNV area in flat mounts 10 days after intravitreal administration. It is filed as in vivo. More on the design: key to Test results, CNV area vs. DMSO, t-test: **: P < 0.01 (vs. DMSO), t-test; #: P < 0.05 (vs. Ki19003), t-test; N.S.: Not Significant (vs. DMSO), t-test; key to Test results, CNV area vs. DMSO, Dunnett's test: *: P < 0.05 (vs. DMSO), Dunnett's test; N.S.: Not Significant (vs. DMSO), Dunnett's test; #: P < 0.05; ##: P < 0.01 (vs. GW766994), Dunnett's test; key to Test results, CNV area vs. PBS, t-test: *: P < 0.05 (vs. PBS), t-test; N.S.: Not Significant (vs. PBS), t-test; CNV area, mean: unit not given here. The conditions noted are these: for CNV area, mean: 5 μL/eye intravitreal once, 10 days. The method, then: Laser-induced CNV models of rat were prepared, and neovascularization inhibitory effect was examined with respect to intravitreal administration of Composition 10 or Ki19003. BN/CrlCrlj rats (male, CHARLES RIVER LABORATORIES JAPAN, INC.) were used for the preparation of animal models. […] The retina around the optic disk was irradiated with a laser beam to induce CNV. Used for the laser beam irradiation were SCOPISOL solution for eye, Fundus 5.4 mm Laser Lens, a laser photocoagulation device and a slit lamp illumination system. Immediately after the laser beam irradiation, 5 μL/eye of the test substance was administered once into the vitreous bodies of both eyes. Immediately after the administration, one drop of an antimicrobial drug ([…] Ophthalmic Solution 0.5%) was instilled. After 10 days from the preparation, the models were euthanized with CO2. The eyeballs were extracted and immersed in 10% neutral buffered solution of formalin (room temperature, about 60 minutes). Eye cups were prepared, washed with PBS, dehydrated with methanol and immersed in PBS containing 1% bovine serum albumin and 0.5% Triton X-100 (room temperature, about 60 minutes). The retina was removed, and 60 μL of 0.5% fluorescein Griffonia simplicifolia lectin I, FITC-conjugate was added to the eye cups, and the eye cups were allowed to stand (under refrigeration, overnight). By this treatment, vascular endothelial cells of CNV were fluorescently stained with FITC-lectin. Eight slits were made radially in each of the eye cups to thereby obtain flat mounts. These flat mounts were washed twice with PBS containing 0.1% Triton X-100 and embedded on a glass slide with about 120 μL of Prolong Gold Antifade Reagent. A fluorescence image of CNV in the flat mount embedded on a glass slide was taken with a fluorescent microscope. The area of CNV was measured using an image processing software (Image pro exp). The areas of CNV in each group were analyzed by a test (t-test) for unpaired two groups. The significance level was 5% on both sides.

Assay [3] has as its system laser-induced CNV. The conditions noted are these: intravitreal administration, laser-induced CNV model of mouse; cited from earlier work.

With “5β-Cholanic Acid-Introduced CS [Compound 3]”, in assay [1], the “Test results, CNV area vs. CS, t-test” value is recorded as “N.S”; the “inhibitory effects of CNV, as compared to CS” value is on record as “did not show significant inhibitory effects of CNV”; the “CNV area, mean” value was 51925.

`Cc1ccc(S(=O)(=O)NC(=O)N2CCC(N3CCC(Oc4ccc(Cl)c(Cl)c4)CC3)CC2)cc1` [AZD3778]: the “Test results, CNV area vs. DMSO, t-test” value in assay [2] (Test Example 8) is “N.S”. Further, the “CNV area, mean” value in assay [2] (Test Example 8, Composition 35 containing 0.1 mg/mL of AZD3778, AZD3778 0.1 mg/mL in DMSO) came out at 43935.

In the case of `NC(=O)c1ccc(CNC(=O)NC[C@H]2CN(Cc3ccc(Cl)c(Cl)c3)CCO2)cc1` [GW766994], in assay [2] (GW766994 dissolved in DMSO, 2 mg/mL and 1.5 mg/mL (Test Examples 6 and 10), both concentrations), the “inhibitory effects of CNV, as compared to DMSO” value was “did not have inhibitory effects of CNV”. Further, the “Test results, CNV area vs. DMSO, t-test” value in assay [2] (Test Example 6) is on record as “N.S”. Besides, the “CNV area, mean” value is given as 41548 in assay [2] (Test Example 6, Composition 33 containing 2 mg/mL of GW766994, GW766994 2 mg/mL in DMSO) and 30795 in assay [2] (Test Example 10, Composition 6 containing 0.71, Composition 7 0.83 mg/mL of GW766994, GW766994 1.5 mg/mL in DMSO). In addition, in assay [2] (Test Example 10), the “Test results, CNV area vs. DMSO, Dunnett's test” value is “N.S”.

As to `NC(N)=NCCC[C@H](NC(=O)[C@@H]1Cc2ccccc2CN1C(=O)CCC(=O)c1ccccc1)C(=O)NCC1CCCCC1` [PS372424], the “CNV area, mean” value in assay [2] (Test Example 15, Composition 38 containing 0.091 mg/mL of PS372424, PS372424 0.1 mg/mL in DMSO) stood at 36842.

Consider `Cc1ccc2c(c1)C1(CCN(CCc3nc(-c4ccccc4)oc3C)CC1)OC(=O)N2` [RS504393], for which the “Test results, CNV area vs. DMSO, t-test” value in assay [2] (Test Example 14) is given as “N.S”. In addition, the “CNV area, mean” value in assay [2] (Test Example 14, Composition 37 containing 0.01 mg/mL of RS504393, RS504393 0.01 mg/mL in DMSO) is reported as 44137.

For `O=C(Nc1ccc([N+](=O)[O-])cc1O)Nc1ccccc1Br` [SB225002], the “Test results, CNV area vs. DMSO, t-test” value in assay [2] (Test Example 5) is “N.S”. Further, the “CNV area, mean” value in assay [2] (Test Example 5, Composition 31 containing 0.018, Composition 32 0.02 mg/mL of SB225002, SB225002 0.02 mg/mL in DMSO) was 43121.

As to `COC(=O)[C@H](Cc1ccc([N+](=O)[O-])cc1)NC(=O)c1cccc2ccccc12` [SB328437], the “CNV area, mean” value in assay [2] (Test Example 4, Compositions 14, 15, 16 containing 1.33, 1.67, 3.33 mg/mL of SB328437, SB328437 2 mg/mL in DMSO) is recorded as 26040; in assay [2] (Test Example 9, Composition 36 containing 1 mg/mL of SB328437, SB328437 1 mg/mL in DMSO), 38911. Besides, in assay [2] (Test Example 9), the “Test results, CNV area vs. DMSO, t-test” value is “* (P < 0.05)”.

As for chondroitin sulfate [CS], the “CNV area, mean” value in assay [1] came out at 50236; in assay [2] (Test Example 18, CS (average molecular weight about 140,000) 20 mg/mL in PBS), 30462. For the same compound, the “Test results, CNV area vs. PBS, t-test” value in assay [2] (Test Example 18) is recorded as “N.S”. Besides, the “inhibitory effects of CNV, as compared to PBS” value in assay [2] (Test Example 18, CS 20 mg/mL) is recorded as “did not show significant inhibitory effects of CNV”.

Consider heparan sulfate, for which the “suppression of CNV” value in assay [3] was “suppressed CNV”.

Consider heparin, for which the “suppression of CNV” value in assay [3] is listed as “suppressed CNV”.

Values taken from patent publication US11253540B2, “Composition including glycosaminoglycan derivative and chemokine receptor activity regulator” (Seikagaku Corporation, priority 2015, dated 2022).
